# Assays:
# [1] = test system: vegetarian subjects; details: 5 g/day for six weeks; cited from earlier work
# [2] = test system: rats; details: 250 mg/kg injections for three weeks, three weeks after pilocarpine; cited from earlier work
# [3] = test system: cognitive impairment due to Alzheimer's disease; details: 400 mg capsules three times daily; cited from earlier work
# [4] = test system: patients with dementia disorders; details: 1570 patients in 10 studies; cited from earlier work
# [5] = test system: hippocampus of the rats; details: cited from earlier work
# [6] = test system: patients with probable senile dementia of Alzheimer's type; details: cited from earlier work
# [7] = test system: brain aging; details: 1 g daily, 12 weeks; cited from earlier work
# [8] = 100-300 mg/day; cited from earlier work
# [9] = test system: Caco2 monolayer; experiment: Permeability of α-GPC through a Caco2 monolayer in the presence and absence of blueberry polyphenol extract; format: in vitro ADME; set-up: cumulative L-α-GPC, averaged over runs: scale not given here; details: for cumulative L-α-GPC, averaged over runs: average of runs 1 and 2; for cumulative L-α-GPC: 5 mM α-GPC in DPBS alone or with 1 mg/ml blueberry polyphenol extract
# Description: In another series of experiments, the permeability of α-GPC through a Caco2 monolayer was measured to determine whether the presence of a blueberry-based polyphenol extract affected permeability.
# More particularly, donor GPC concentrations were reduced to 5 mM. […] This experiment consisted of two independent runs (as identified below as run 1 and run 2). […] The data from the runs is summarized in Table 2, illustrated in FIG. 2 (Total Alpha GPC permeability through a Caco2 monolayer) and averaged below in Table 3. The averaged data is illustrated in FIG. 3. In each of the graphs, the vertical axis units are cumulative L-α-GPC in μg/cm2 and the horizontal axis units are minutes.
compound,measurement,setting,value
CN(CC(=O)O)C(=N)N [creatine],working memory and intelligence,[1],Positive results
"C[N+](C)(C)CCOP(=O)([O-])OC[C@H](O)CO [α-GPC, Alpha-glycerylphosphorylcholine]",cognitive function,[2],improved
same,neurogenesis,[2],increased
same,treatment of the cognitive symptoms of Alzheimer's disease,[3],useful
same,"patient clinical results, cognitive symptoms of adult-onset dementia disorders",[4],improved patient clinical results
same,acetylcholine release in the hippocampus,[5]; 75 mg/kg i.g.,able to increase acetylcholine release
same,dose with maximum effect on acetylcholine release,[5]; i.g.,300 mg/kg
same,improvements compared with the ST200 patients,[6]; ST200 1000 mg morning and 500 mg afternoon,significantly better
same,intellectual and emotional impairments,"[6]; oral 800 mg morning and 400 mg afternoon, six months",significantly improved
same,clinical response in brain aging,[7],slower but more sustained
same,"memory, concentration, and focus",[8],helps maintain and improve
same,peak power and force output during strenuous exercises,[8],helps to increase
same,effect of α-GPC on permeation of the blueberry polyphenols through the Caco2 monolayer,[9],did not significantly change
same,"cumulative L-α-GPC, averaged over runs",[9]; 15 min,0.128 μg/cm2
same,"cumulative L-α-GPC, averaged over runs",[9]; 30 min,0.471 μg/cm2
same,"cumulative L-α-GPC, averaged over runs",[9]; 45 min,0.643 μg/cm2
same,"cumulative L-α-GPC, averaged over runs",[9]; 60 min,0.815 μg/cm2
same,"cumulative L-α-GPC, averaged over runs",[9]; 75 min,1.017 μg/cm2
same,"cumulative L-α-GPC, averaged over runs",[9]; 90 min,1.292 μg/cm2
same,cumulative L-α-GPC,"[9]; run 1, 15 min",18.75 μg/cm2
same,cumulative L-α-GPC,"[9]; run 1, 30 min",41.37 μg/cm2
same,cumulative L-α-GPC,"[9]; run 1, 45 min",67.92 μg/cm2
same,cumulative L-α-GPC,"[9]; run 1, 60 min",103.2 μg/cm2
same,cumulative L-α-GPC,"[9]; run 1, 75 min",150.0 μg/cm2
same,cumulative L-α-GPC,"[9]; run 1, 90 min",222.4 μg/cm2
same,cumulative L-α-GPC,"[9]; run 2, 15 min",47.16 μg/cm2
same,cumulative L-α-GPC,"[9]; run 2, 30 min",200.9 μg/cm2
same,cumulative L-α-GPC,"[9]; run 2, 45 min",262.8 μg/cm2
same,cumulative L-α-GPC,"[9]; run 2, 60 min",316.1 μg/cm2
same,cumulative L-α-GPC,"[9]; run 2, 75 min",373.3 μg/cm2
same,cumulative L-α-GPC,"[9]; run 2, 90 min",442.1 μg/cm2
NC(=O)CN1CC(O)CC1=O (centres unmarked) [oxiracetam],clinical response in brain aging,[7],early improvement which was maintained during the therapy but was rapidly attenuated after discontinuation of the therapy

# Reference: patent US20210361731A1 (Phenolics, LLC, priority 2020, published 2021)
